Experimental data taken from patent publication US7396837B2, “Antitumoral analogs of lamellarins” (Pharma Mar, S.A.U., priority 2002, dated 2008).
Like-named read-outs stand apart in the source and are kept apart here.

Experiments:
Format in all cases: cell-based
IGROV = assay: SRB colorimetric cell growth inhibition assay, IGROV; settings: IGROV; for GI50: GI=growth inhibition, read-out: GI50 IGROV; for CC50: cell killing (cytotoxic effect), read-out: LC50 IGROV
In short: (§1)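 Cells are kept under uninterrupted exposure to compound. Staining with sulforhodamine B then measures cell growth and viability. Triplicate data give mean ± SD, from which growth inhibition, total growth inhibition and lethal concentration values follow.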

SK-MEL-28 = assay: SRB colorimetric cell growth inhibition assay, SK-MEL-28; settings: for GI50: GI=growth inhibition, read-out: GI50 MEL-28; for CC50: cell killing (cytotoxic effect), read-out: LC50 MEL-28
In short: as §1

LoVo-Dox = assay: SRB colorimetric cell growth inhibition assay, LoVo-Dox (MDR); settings: LOVO-DOX; for GI50: GI=growth inhibition, read-out: GI50 LOVO-DOX; for CC50: LC=cell killing (cytotoxic effect), read-out: LC50 LOVO-DOX; for IC (TGI): TGI=total growth inhibition (cytostatic effect), read-out: TGI LOVO-DOX
In short: as §1

LoVo = assay: SRB colorimetric cell growth inhibition assay, LoVo; settings: for GI50: GI=growth inhibition, read-out: GI50 LOVO; for CC50: LC=cell killing (cytotoxic effect), read-out: LC50 LOVO; for IC (TGI): TGI=total growth inhibition (cytostatic effect), read-out: TGI LOVO
In short: as §1

IGROV-ET = assay: SRB colorimetric cell growth inhibition assay, IGROV-ET (ET-743 resistant); settings: IGROV-ET; for GI50: GI=growth inhibition, read-out: GI50 IGROV-ET; for CC50: cell killing (cytotoxic effect), read-out: LC50 IGROV-ET
In short: as §1

SK-BR-3 = assay: SRB colorimetric cell growth inhibition assay, SK-BR-3; settings: for GI50: GI=growth inhibition, read-out: GI50 SK-BR-3; for CC50: cell killing (cytotoxic effect), read-out: LC50 SK-BR-3
In short: as §1

H-MEC-1 = assay: SRB colorimetric cell growth inhibition assay, H-MEC-1; settings: Homo sapiens, HMEC-1, H-MEC-1; for GI50: GI=growth inhibition, read-out: GI50 H-MEC-1; for IC (TGI): total growth inhibition (cytostatic effect), read-out: TGI H-MEC-1
In short: (§2)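 Sulforhodamine B colorimetric assay of cell growth and viability, mean ± SD of triplicate wells. Parameters derived: GI (growth inhibition), TGI (total growth inhibition, cytostatic) and LC (cell killing, cytotoxic).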

[1] = as above; settings: human, H-MEC-1 cells; H-MEC-1; cell killing (cytotoxic effect); read-out: LC50 H-MEC-1
In short: as §2

SKOV-3 = assay: SRB colorimetric cell growth inhibition assay, SKOV-3; settings: Homo sapiens; for GI50: SK-OV-3, SKOV-3, GI=growth inhibition, read-out: GI50 SKOV-3; for LC50 (concentration causing 50% net cell killing) / IC (TGI): SK-OV-3, SKOV-3; for LC50 (concentration causing 50% net cell killing): cell killing (cytotoxic effect), read-out: LC50 SKOV-3; for IC (TGI): total growth inhibition (cytostatic effect), read-out: TGI SKOV-3
In short: as §2

DU-145 = assay: SRB colorimetric cell growth inhibition assay, DU-145; settings: for GI50: GI=growth inhibition, read-out: GI50 DU-145; for CC50: cell killing (cytotoxic effect), read-out: LC50 DU-145
In short: as §1

HT-29 = assay: SRB colorimetric cell growth inhibition assay, HT-29; settings: for GI50: GI=growth inhibition, read-out: GI50 HT-29; for CC50: LC=cell killing (cytotoxic effect), read-out: LC50 HT-29; for IC (TGI): TGI=total growth inhibition (cytostatic effect), read-out: TGI HT-29
In short: as §1

PANC-1 = assay: SRB colorimetric cell growth inhibition assay, PANC-1; settings: for GI50: GI=growth inhibition, read-out: GI50 PANC-1; for CC50: LC=cell killing (cytotoxic effect), read-out: LC50 PANC-1; for IC (TGI): TGI=total growth inhibition (cytostatic effect), read-out: TGI PANC-1
In short: as §1

LNCaP = assay: SRB colorimetric cell growth inhibition assay, LNCaP; settings: LN-caP; for GI50: GI=growth inhibition, read-out: GI50 LN-caP; for CC50: cell killing (cytotoxic effect), read-out: LC50 LN-caP; for IC (TGI): total growth inhibition (cytostatic effect), read-out: TGI LN-caP
In short: as §1

K-562 = assay: SRB colorimetric cell growth inhibition assay, K-562; settings: for GI50: GI=growth inhibition, read-out: GI50 K-562; for CC50: LC=cell killing (cytotoxic effect), read-out: LC50 K-562; for IC (TGI): TGI=total growth inhibition (cytostatic effect), read-out: TGI K-562
In short: as §1

A-549 = assay: SRB colorimetric cell growth inhibition assay, A-549; settings: for GI50: GI=growth inhibition, read-out: GI50 A-549; for CC50: LC=cell killing (cytotoxic effect), read-out: LC50 A-549; for IC (TGI): TGI=total growth inhibition (cytostatic effect), read-out: TGI A-549
In short: as §1

[2] = Homo sapiens, SK-MEL-28, MEL-28
[3] = total growth inhibition (cytostatic effect)

## COc1cc(-c2c3c4cc(OC)c(OC(=O)[C@@H]5CCCN5)cc4oc(=O)c3n3ccc4c(OC(=O)[C@@H]5CCCN5)c(OC)c(OC)cc4c23)ccc1OC(=O)[C@@H]1CCCN1 [Compound 30]
IGROV; Homo sapiens
  GI50: 350 nM
  CC50: 6990 nM
IGROV; Homo sapiens, total growth inhibition (cytostatic effect), read-out: TGI IGROV
  IC (TGI): 1470 nM
SK-MEL-28; [2]
  GI50: 251 nM
  CC50: 4420 nM
SK-MEL-28; Homo sapiens, SK-MEL-28, MEL-28, total growth inhibition (cytostatic effect), read-out: TGI MEL-28
  IC (TGI): 1080 nM
LoVo-Dox; Homo sapiens
  GI50: 683 nM
  CC50: 5220 nM
  IC (TGI): 1930 nM
LoVo; Homo sapiens, LoVo
  GI50: 383 nM
  CC50: 3770 nM
  IC (TGI): 1060 nM
IGROV-ET; Homo sapiens
  GI50: 450 nM
  CC50: 6630 nM
IGROV-ET; Homo sapiens, total growth inhibition (cytostatic effect), read-out: TGI IGROV-ET
  IC (TGI): 1830 nM
SK-BR-3; Homo sapiens, SK-BR-3, SK-BR-3
  GI50: 498 nM
  CC50: 6390 nM
SK-BR-3; Homo sapiens, SK-BR-3, SK-BR-3, total growth inhibition (cytostatic effect), read-out: TGI SK-BR-3
  IC (TGI): 1610 nM
H-MEC-1
  GI50: 70.5 nM
  IC (TGI): 241 nM
[1]
  LC50 (concentration giving 50% net cell killing): 840 nM
SKOV-3
  GI50: 348 nM
  LC50 (concentration causing 50% net cell killing): 5360 nM
  IC (TGI): 1240 nM
DU-145; Homo sapiens, DU-145, DU-145
  GI50: 53.8 nM
  CC50: 3840 nM
DU-145; Homo sapiens, DU-145, DU-145, total growth inhibition (cytostatic effect), read-out: TGI DU-145
  IC (TGI): 265 nM
HT-29; Homo sapiens, HT-29, HT-29
  GI50: 2810 nM
  CC50: 8600 nM
  IC (TGI): 5060 nM
PANC-1; Homo sapiens, PANC-1, PANC-1
  GI50: 805 nM
  CC50: 5640 nM
  IC (TGI): 2180 nM
LNCaP; Homo sapiens, LNCaP
  GI50: 275 nM
  CC50: 4900 nM
  IC (TGI): 1270 nM
K-562; Homo sapiens, K562, K-562
  GI50: 204 nM
  CC50: 8600 nM
  IC (TGI): 1100 nM
A-549; Homo sapiens, A549, A-549
  GI50: 341 nM
  CC50: 6640 nM
  IC (TGI): 1270 nM

## COc1cc(-c2c3c4cc(OC)c(OC(=O)[C@@H](N)Cc5ccccc5)cc4oc(=O)c3n3ccc4c(OC(=O)[C@@H](N)Cc5ccccc5)c(OC)c(OC)cc4c23)ccc1OC(=O)[C@@H](N)Cc1ccccc1 [Compound 31]
IGROV
  GI50: 1260 nM
  CC50: 7620 nM
IGROV; [3]
  TGI IGROV: 7.62E−06 Molar
SK-MEL-28; [2]
  CC50: 7620 nM
SK-MEL-28; MEL-28
  GI50: 482 nM
SK-MEL-28; MEL-28, total growth inhibition (cytostatic effect)
  TGI MEL-28: 7.62E−06 Molar
LoVo-Dox; Homo sapiens
  CC50: 7620 nM
  IC (TGI): 7620 nM
LoVo-Dox
  GI50: 1490 nM
LoVo; Homo sapiens, LoVo
  CC50: 7620 nM
  IC (TGI): 5350 nM
LoVo; LOVO
  GI50: 1980 nM
IGROV-ET
  GI50: 1390 nM
  CC50: 7620 nM
IGROV-ET; [3]
  TGI IGROV-ET: 4.00E−06 Molar
SK-BR-3; Homo sapiens, SK-BR-3, SK-BR-3
  CC50: 7620 nM
SK-BR-3; SK-BR-3
  GI50: 1800 nM
SK-BR-3; SK-BR-3, total growth inhibition (cytostatic effect)
  TGI SK-BR-3: 7.62E−06 Molar
H-MEC-1
  GI50: 119 nM
  IC (TGI): 260 nM
[1]
  LC50 (concentration giving 50% net cell killing): 565 nM
SKOV-3
  GI50: 524 nM
  LC50 (concentration causing 50% net cell killing): 7620 nM
  IC (TGI): 4220 nM
DU-145; DU-145
  GI50: 301 nM
  CC50: 7620 nM
DU-145; DU-145, total growth inhibition (cytostatic effect)
  TGI DU-145: 8.61E−07 Molar
HT-29; HT-29
  GI50: 7620 nM
HT-29; Homo sapiens, HT-29, HT-29
  CC50: 7620 nM
  IC (TGI): 7620 nM
PANC-1; Homo sapiens, PANC-1, PANC-1
  CC50: 7620 nM
  IC (TGI): 7620 nM
PANC-1; PANC-1
  GI50: 1960 nM
LNCaP; Homo sapiens, LNCaP
  CC50: 3430 nM
  IC (TGI): 1450 nM
LNCaP
  GI50: 548 nM
K-562; Homo sapiens, K562, K-562
  CC50: 7620 nM
  IC (TGI): 2470 nM
K-562; K-562
  GI50: 410 nM
A-549; A-549
  GI50: 433 nM
A-549; Homo sapiens, A549, A-549
  CC50: 4600 nM
  IC (TGI): 1420 nM
